Results as given in US8772498B2, “Alkylamine-substituted dicyanopyridine and amino acid ester prodrugs thereof” (Bayer Intellectual Property GmbH, priority 2009, dated 2014).
Counter-ions that a name gives are not always drawn.

What was measured:
[1] = Determination of the solubility in 5% strength aqueous dextrose solution; type: physicochemical; details: for solubility at 24 h: saline or isotonic, thermodynamic from solid, room temperature
Protocol: B-8. Determination of Solubility, Stability and Liberation Behavior a) Determination of the Solubility:
The test substance is suspended in 5% strength aqueous dextrose solution. This suspension is shaken at room temperature for 24 h. After ultracentrifugation at 224 000 g for 30 min, the supernatant is diluted with DMSO and analyzed by HPLC. A two-point calibration plot of the test compound in DMSO is used for quantification.
Agilent 1100 with DAD (G1315A), quat. pump (G1311A), autosampler CTC HTS PAL, degasser (G1322A) and column thermostat (G1316A); column: Phenomenex Gemini C18, 5 μm, 50 mm×2 mm; temperature: 40° C.; eluent A: water/phosphoric acid pH 2; eluent B: acetonitrile; flow rate: 0.7 ml/min; gradient: 0-0.5 min 85% A, 15% B; ramp: 0.5-3 min 10% A, 90% B; 3-3.5 min 10% A, 90% B; ramp: 3.5-4 min 85% A, 15% B; 4-5 min 85% A, 15% B.
Agilent 1100 with DAD (G1315A), quat. pump (G1311A), autosampler CTC HTS PAL, degasser (G1322A) and column thermostat (G1316A); column: VDSoptilab Kromasil 100 C18, 3.5 μm, 60 mm×2.1 mm; temperature: 30° C.; eluent A: water+5 ml perchloric acid/I; eluent B: acetonitrile; flow rate: 0.75 ml/min; gradient: 0-0.5 min 98% A, 2% B; ramp: 0.5-4.5 min 10% A, 90% B; 4.5-6 min 10% A, 90% B; ramp: 6.5-6.7 min 98% A, 2% B; 6.7-7.5 min 98% A, 2% B.

[2] = Stability in buffer at various pH values; type: physicochemical
Protocol: b) Stability in Buffer at Various pH Values:
0.3 mg of the test substance is weighed into a 2 ml HPLC vial and 0.5 ml of acetonitrile or acetonitrile/DMSO (9:1) is added. The substance is dissolved by putting the sample vessel in an ultrasonic bath for about 10 seconds. Then 0.5 ml of the respective (buffer) solution is added, and the sample is again treated in the ultrasonic bath.
(Buffer) solutions employed:
pH 4: 1 liter of Millipore water is adjusted to pH 4.0 with 1 N hydrochloric acid;
pH 7.4: 90.0 g of sodium chloride, 13.61 g of potassium dihydrogen phosphate and 83.35 g of 1 N sodium hydroxide solution are made up to 1 liter with water; this solution is then further diluted 1:10 with Millipore water.
5 μl portions of the test solution are analyzed by HPLC for their content of unchanged test substance, and of active substance (A) produced, every hour over a period of 24 hours at 37° C. The percentage areas of the appropriate peaks are used for quantification.
HPLC method for Examples 41 and 44:
(§1) Agilent 1100 with DAD (G1315B), binary pump (G1312A), autosampler (G1329A), column oven (G1316A), thermostat (G1330B); column: Kromasil 100 C18, 250 mm×4 mm, 5 μm; column temperature: 30° C.; mobile phase A: water+5 ml of perchloric acid/liter, eluent B: acetonitrile; gradient: 0 min 90% A→5.0 min 40% A→18.0 min 10% A→19.0 min 10% A→21.0 min 90% A→23.0 min 90% A; flow rate: 2.0 ml/min; UV detection: 288 nm.
HPLC Method for Examples 50 and 59:
as §1, with “125” for “250”, “60% A→7.0 min 60% A→10.0” for “40% A→18.0”, “A→12.0” for “A→19.0”, “A→14.0” for “A→21.0”, “A→16.0” for “A→23.0”, “294” for “288”
HPLC Method for Example 54:
as §1, with “(G1314A),” for “(G1315B),”, “(G1330A);” for “(G1330B);”
The ratios of the peak areas (F) at the respective time points in relation to the peak areas at the starting time are shown in Table 2 for representative exemplary embodiments: […]

adenosine A1 receptor = target: T1, adenosine A1 receptor (Homo sapiens, UniProt P30542); assay: Indirect determination of adenosine agonism by gene expression (luciferase), A1 cells; type: cell-based; details: CHO cells, luciferase readout, 1 μM forskolin
T1 construct: expressed in transfected cells; host or cells: CHO (Chinese Hamster Ovary)
T1 sequence (P30542 1-326): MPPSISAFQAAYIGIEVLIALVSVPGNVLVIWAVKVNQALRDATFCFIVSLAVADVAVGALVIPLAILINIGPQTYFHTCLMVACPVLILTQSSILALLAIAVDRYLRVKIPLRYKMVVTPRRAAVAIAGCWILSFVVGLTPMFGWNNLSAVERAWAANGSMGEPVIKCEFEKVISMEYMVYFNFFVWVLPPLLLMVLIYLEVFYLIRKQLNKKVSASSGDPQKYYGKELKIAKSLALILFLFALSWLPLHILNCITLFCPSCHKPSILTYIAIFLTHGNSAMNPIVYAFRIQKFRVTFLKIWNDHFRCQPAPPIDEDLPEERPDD
From the text: (§2) B-1. Indirect Determination of the Adenosine Agonism by Way of Gene Expression
(§3) Cells of the CHO (Chinese Hamster Ovary) permanent cell line are transfected stably with the cDNA for the adenosine receptor subtypes A1, A2a and A2b. The adenosine A1 receptors are coupled to the adenylate cyclase by way of G, proteins, while the adenosine A2a and A2b receptors are coupled by way of Gs proteins. In correspondence with this, the formation of cAMP in the cell is inhibited or stimulated, respectively. After that, expression of the luciferase is modulated by way of a cAMP-dependent promoter. The luciferase test is optimized, with the aim of high sensitivity and reproducibility, low variance and good suitability for implementation on a robot system, by varying several test parameters, such as cell density, duration of the growth phase and the test incubation, forskolin concentration and medium composition. The following test protocol is used for pharmacologically characterizing cells and for the robot-assisted substance screening:
(§4) The stock cultures are grown, at 37° C. and under 5% CO2, in DMEM/F12 medium containing 10% FCS (fetal calf serum) and in each case split 1:10 after 2-3 days. The test cultures are seeded in 384-well plates with 2000 cells per well and grown at 37° C. for approx. 48 hours. The medium is then replaced with a physiological sodium chloride solution (130 mM sodium chloride, 5 mM potassium chloride, 2 mM calcium chloride, 20 mM HEPES, 1 mM magnesium chloride hexahydrate, 5 mM sodium bicarbonate, pH 7.4). The substances to be tested, which are dissolved in DMSO, are pipetted into the test cultures (maximum final concentration of DMSO in the test mixture: 0.5%) in a dilution series of from 5×10^−11 M to 3×10^−6 M (final concentration). 10 minutes later, forskolin is added to the A1 cells and all the cultures are subsequently incubated at 37° C. for four hours. After that, 35 μl of a solution which is composed of 50% lysis reagent (30 mM disodium hydrogenphosphate, 10% glycerol, 3% TritonX100, 25 mM TrisHCl, 2 mM dithiotreitol (DTT), pH 7.8) and 50% luciferase substrate solution (2.5 mM ATP, 0.5 mM luciferin, 0.1 mM coenzyme A, 10 mM tricine, 1.35 mM magnesium sulfate, 15 mM DTT, pH 7.8) are added to the test cultures, which are shaken for approx. 1 minute and the luciferase activity is measured using a camera system. The ECK values are determined, i.e., the concentrations at which 50% of the luciferase answer is inhibited in the case of the A1 cell, and, respectively, 50% of the maximum stimulation with the corresponding substance is achieved in the case of the A2b and A2a cells.
(§5) Table 1 below lists the ECK values of representative working examples for the receptor stimulation on adenosine A1, A2a and A2b receptor subtypes: […]

adenosine A2b receptor = target: T2, adenosine A2b receptor (Homo sapiens, UniProt P29275); assay: Indirect determination of adenosine agonism by gene expression (luciferase), A2b cells; type: cell-based; details: CHO cells, luciferase readout
T2 construct: expressed in transfected cells; host or cells: CHO (Chinese Hamster Ovary)
T2 sequence (P29275 1-332): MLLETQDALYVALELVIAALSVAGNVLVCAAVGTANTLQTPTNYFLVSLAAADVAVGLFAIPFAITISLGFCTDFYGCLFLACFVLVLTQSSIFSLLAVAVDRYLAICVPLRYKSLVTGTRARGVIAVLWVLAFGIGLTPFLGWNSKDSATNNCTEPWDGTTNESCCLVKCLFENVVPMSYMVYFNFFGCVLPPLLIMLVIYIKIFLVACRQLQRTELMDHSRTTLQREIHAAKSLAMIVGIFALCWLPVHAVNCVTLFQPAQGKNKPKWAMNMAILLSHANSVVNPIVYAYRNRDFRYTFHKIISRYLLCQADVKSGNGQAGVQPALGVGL
From the text: as §2, §3, §4, §5

Row | SMILES | solubility at 24 h [1] [µg/mL] | % test substance after 4 h (F(t = 4 h) × 100/F(t = 0 h)) ([2]; pH 4, 37° C.) [%] | % test substance after 24 h (F(t = 24 h) × 100/F(t = 0 h)) ([2]; pH 4, 37° C.) [%] | % test substance after 4 h (F(t = 4 h) × 100/F(t = 0 h)) ([2]; pH 7.4, 37° C.) [%] | % test substance after 24 h (F(t = 24 h) × 100/F(t = 0 h)) ([2]; pH 7.4, 37° C.) [%] | other results
1 | CNc1nc(SCc2csc(-c3ccc(Cl)cc3)n2)c(C#N)c(-c2ccc(OCCOC(=O)[C@@H](N)CCCN)cc2)c1C#N [Example 52, 2-{4-(2-({(2-(4-Chlorophenyl)-1,3-thiazol-4-yl)methyl}sulfanyl)-3,5-dicyano-6-(methylamino)pyridin-4-yl)phenoxy}ethyl L-ornithinate bis(trifluoroacetate)] | 280 |  |  |  |  | 
2 | N#Cc1c(SCc2csc(-c3ccc(Cl)cc3)n2)nc(N2CCCC2)c(C#N)c1-c1ccc(OCCOC(=O)[C@@H](N)CCCN)cc1 [Example 59, 2-{4-(2-({(2-(4-Chlorophenyl)-1,3-thiazol-4-yl)methyl}sulfanyl)-3,5-dicyano-6-(pyrrolidin-1-yl)pyridin-4-yl)phenoxy}ethyl L-ornithinate bis(trifluoroacetate)] |  | 99 | 95 | 0 | 0 | 
3 | N#Cc1c(SCc2csc(-c3ccc(Cl)cc3)n2)nc(N2CCC(F)(F)C2)c(C#N)c1-c1ccc(OCCO)cc1 [Example 26, 2-({(2-(4-Chlorophenyl)-1,3-thiazol-4-yl)methyl}sulfanyl)-6-(3,3-difluoropyrrolidin-1-yl)-4-(4-(2-hydroxyethoxy)phenyl)pyridine-3,5-dicarbonitrile] |  |  |  |  |  | EC50 (adenosine A1 receptor): 0.5 nM; EC50 (adenosine A2b receptor): 1000 nM
4 | CCCNc1nc(SCc2csc(-c3ccc(Cl)cc3)n2)c(C#N)c(-c2ccc(OCCOC(=O)[C@H](C)NC(=O)[C@H](C)N)cc2)c1C#N [Example 51, 2-{4-(2-({(2-(4-Chlorophenyl)-1,3-thiazol-4-yl)methyl}sulfanyl)-3,5-dicyano-6-(propylamino)pyridin-4-yl)phenoxy}ethyl L-alanyl-L-alaninate trifluoroacetate] | 540 |  |  |  |  | 
5 | C[C@H](NC(=O)[C@@H](N)CCCN)C(=O)OCCOc1ccc(-c2c(C#N)c(SCc3csc(-c4ccc(Cl)cc4)n3)nc(N3CCCC3)c2C#N)cc1 [Example 58, 2-{4-(2-({(2-(4-Chlorophenyl)-1,3-thiazol-4-yl)methyl}sulfanyl)-3,5-dicyano-6-(pyrrolidin-1-yl)pyridin-4-yl)phenoxy}ethyl L-ornithyl-L-alaninate bis(trifluoroacetate)] | 470 |  |  |  |  | 
6 | CCCNc1nc(SCc2csc(-c3ccc(Cl)cc3)n2)c(C#N)c(-c2ccc(OCCO)cc2)c1C#N [Example 12] |  |  |  |  |  | Solubility of the active substance ([1]; result in words): below the detection limit
7 | CCCNc1nc(SCc2csc(-c3ccc(Cl)cc3)n2)c(C#N)c(-c2ccc(OCCOC(=O)[C@H](C)NC(=O)[C@@H](N)CCCCN)cc2)c1C#N [Example 54, 2-{4-(2-({(2-(4-Chlorophenyl)-1,3-thiazol-4-yl)methyl}sulfanyl)-3,5-dicyano-6-(propylamino)pyridin-4-yl)phenoxy}ethyl L-lysyl-L-alaninate bis(trifluoroacetate)] | 640 | 98 | 97 | 29 | 0 | 
8 | N#Cc1c(SCc2csc(-c3ccc(Cl)cc3)n2)nc(N2CCCC2)c(C#N)c1-c1ccc(OCCOC(=O)CCN)cc1 [Example 50, 2-{4-(2-({(2-(4-Chlorophenyl)-1,3-thiazol-4-yl)methyl}sulfanyl)-3,5-dicyano-6-(pyrrolidin-1-yl)pyridin-4-yl)phenoxy}ethyl beta-alaninate trifluoroacetate] |  | 99 | 99 | 94 | 78 | 
